From ChEMBL document CHEMBL4334474, “Friomaramide, a Highly Modified Linear Hexapeptide from an Antarctic Sponge, Inhibits Plasmodium falciparum Liver-Stage Development” (J Nat Prod, 2019)
Active and inactive are the calls of the source. The calls are words filed in the database; no cut-off is given here. Non-standard residues stand in square brackets, D forms with d. Residues, ends and D or L forms follow the SMILES beside them. *: point of attachment. NMeI = CC[C@H](C)[C@H](NC)C(=O)O; dNMeF = CN[C@H](Cc1ccccc1)C(=O)O; X1 = C(=C/c1c[nH]c2ccccc12)/N*; NMeV = CN[C@H](C(=O)O)C(C)C; NMeA = CN[C@@H](C)C(=O)O

Legend:
Plasmodium falciparum [1] = test: Antimalarial activity against Plasmodium falciparum liver stage form infected in human primary hepatocytes assessed as reduction in viability at 6.1 uM incubated for 3 days followed by compound wash and measured on day 6 relative to control; format: functional
Hepatocyte [2] = test: Cytotoxicity against human primary hepatocytes at 6.1 uM; format: cell-based
Hepatocyte [3] = test: Cytotoxicity against human primary hepatocytes at 17.6 uM; format: cell-based
Plasmodium falciparum [4] = test: Antimalarial activity against Plasmodium falciparum liver stage form infected in human primary hepatocytes assessed as reduction in viability at 17.6 uM incubated for 3 days followed by compound wash and measured on day 6; format: functional, organism-based
Hepatocyte [5] = test: Cytotoxicity against human primary hepatocytes at 19.3 uM; format: cell-based
Plasmodium falciparum [6] = test: Antimalarial activity against Plasmodium falciparum liver stage form infected in human primary hepatocytes assessed as reduction in viability at 19.3 uM incubated for 3 days followed by compound wash and measured on day 6 relative to control; format: functional

## CC[C@H](C)[C@@H](C(=O)N/C=C\c1c[nH]c2ccccc12)N(C)C(=O)[C@H]([C@@H](C)CC)N(C)C(=O)[C@H](C)N(C)C(=O)[C@H](C(C)C)N(C)C(=O)[C@@H](Cc1ccccc1)N(C)C(C)=O (Ac-[dNMeF][NMeV][NMeA][NMeI][NMeI]-X1)
Plasmodium falciparum [1]
  inhibition at 6.1 µM: 90 to 92%
Hepatocyte [2]
  Activity: Non-Toxic

## C[C@H]1[C@@H](O)O[C@@H]2O[C@@]3(C)CC[C@H]4[C@H](C)CC[C@@H]1[C@@]24OO3 [ARTENIMOL]
Hepatocyte [3]
  Activity: Non-Toxic
Plasmodium falciparum [4]
  inhibition: inactive

## COc1cc(NC(C)CCCN)c2ncccc2c1 (stereo unspecified) [PRIMAQUINE]
Hepatocyte [5]
  Activity: Non-Toxic
Plasmodium falciparum [6]
  inhibition at 19.3 µM: > 90%
